In patent publication US4031235A, “Insecticidal substituted acetate compounds” (Sumitomo Chemical Company, Limited, priority 1972, dated 1977):
≈ marks a conversion by molar mass, not a printed value. Where two headings read alike, the source gives them in different places.

Legend:
Format in all cases: in vivo
[1] = test system: Larvae of Mosquito (Culex pipiens); assay: Insecticidal activity on larvae of mosquito (Experimental Example 2); conditions: 24 h, read-out: LC50 (50% lethal concentration)
Method: An emulsifiable concentrate was prepared by blending each of the compounds (1) to (300) of the present invention, xylol and Sorpol SM-200 (trade name; manufactured by Toho Chemical Co., Ltd.) in a proportion of 25%, 50% and 25% (by weight), respectively. 20 to 25 day-old rice plants after seeding were grown in pots and sprayed with each 300-fold dilute solution of the emulsifiable concentrates thus prepared and a 300-fold dilute solution of carbaryl 30% wettable powder diluted with water as a control commercial agent in an amount of 10 ml/pot in each case and then the pots were covered by a cylindrical metal net. 15 small brown planthoppers (Delphacodes striatella Fallen) per group were released in each of the pots treated with carbaryl wettable powder, and compound (1) to (21) and (102) to (110), while 15 green rice leafhopper (Nephotettix bipuntatus cincticeps Uhler) per group were released in each of the pots treated with the carbaryl wettable powder and compounds (22) to (101) and (111) to (300).
Of the emulsifiable concentrates prepared in Experimental Example 1, each of those prepared from the compounds of Table 1 below was diluted with water to each of test concentrations and a 200 ml portion thereof was added to a 300 ml volume beaker. 30 larvae of mosquito per group were released in each of the beaker and allowed to stand for 1 day. Survival was observed and a LC50 (50% lethal concentration) was determined by calculating a percent killing in each case. As a control, lindane emulsifiable concentrate was used.

[2] = test system: adult mosquitoes (Culex pipiens); assay: Knock-down of adult mosquitoes by 0.2% oil preparation (Experimental Example 4); conditions: read-out: mosquitoes knocked down
Method: (§1) 0.2% oil preparation was prepared from each of the compounds (1), (2), (8), (14), (22), (25), (26), (27), (51), (62), (73), (82), (86), (88), to (90), (92), (94), (96), (111), (119), (121), (165), (175), (180), (184), (185), (195), (200), (201), and (208) and allethrin as a control using deodorized kerosene.

[3] = test system: oriental house flies; assay: Activity on knock-down against oriental house flies (Experimental Example 5); conditions: 0.2% oil preparation, 0.7 ml, 1.5 Kg/cm^2, (70 cm)^3 glass box
Method: as §1
20 oriental house flies per group were released in a (70 cm)^3 volume glass box and sprayed with each of the oil preparations prepared in Experimental Example 4 from the compounds of Table 3 below and allethrin in an amount of 0.7 ml under a pressure of 1.5 Kg/cm^2.

[4] = test system: oriental house flies; assay: Potentiation of insecticidal activity by addition of piperonyl butoxide, topical application (Experimental Example 6); conditions: piperonyl butoxide 5 times active ingredient; acetone solution on thoracic dorsal plate
Method: To each of the compounds (22), (51), (62), (63), (82), (86), (125), (150), (160), (176), (177), (178), (184), (185), (191), (195), (200), (201), (204), (208), (210), (212) and (226) was added piperonyl butoxide in an amount of 5 times that of the active ingredient, respectively to prepare an acetone solution having a given concentration. Each of the thus prepared acetone solutions was applied onto a thoracic dosal plate of oriental house flies using a microshringe to observe a synergestic effect on insecticidal activity by piperonyl butoxide.

[5] = 0.2% oil preparation, 0.7 ml, 1.5 Kg/cm^2, (70 Cm)^3 glass box

Row | SMILES | LC50 [1] | also measured
1 | Cl[C@H]1[C@H](Cl)[C@@H](Cl)[C@@H](Cl)[C@H](Cl)[C@H]1Cl [Lindane, lindane, reference compound] | 220 ng/mL (≈ 0.756 µM) | –
2 | C=CCC1=C(C)C(OC(=O)C2C(C=C(C)C)C2(C)C)CC1=O (stereo not drawn) [allethrin, reference compound] | – | pest or weed control at 0.2 % [2]: > 80%; KT50 (50% knock-down time) [3]: 186 s
3 | C#CCc1ccc(COC(=O)C(CC)c2ccccc2)cc1 (stereo not drawn) [compound 10, 4'-Propargylbenzyl-α-ethylphenylacetate] | 3 ng/mL (≈ 0.0103 µM) | –
4 | CCC(C(=O)OC(C#N)c1cccc(Oc2ccccc2)c1)c1ccccc1 (stereo not drawn) [compound 14, 3'-Phenoxy-α'-cyanobenzyl-α-ethylphenylacetate] | 2.6 ng/mL (≈ 0.007 µM) | pest or weed control at 0.2 % [2, 5]: > 80%
5 | C=CCC1=C(C)C(OC(=O)C(CC)c2ccco2)CC1=O (stereo not drawn) [compound 16, 2'-Allyl-3'-methyl-2'-cyclopentene-1'-one-4"-yl-α-ethyl-2-furylacetate] | 1.4 ng/mL (≈ 0.00486 µM) | –
6 | CCC(C(=O)OCc1cccc(Oc2ccccc2)c1)c1ccc(OC(C)=O)cc1 (stereo not drawn) [compound 25, 3'-Phenoxybenzyl-α-ethyl-4-acetoxyphenylacetate] | – | pest or weed control at 0.2 % [2, 5]: > 80%
7 | CCC(C(=O)OCc1coc(Cc2ccccc2)c1)c1ccc([S+](C)[O-])cc1 (stereo not drawn) [compound 26, 5'-Benzyl-3'-furylmethyl-α-ethyl-4-methylsulfoxyphenylacetate] | – | pest or weed control at 0.2 % [2, 5]: > 80%
8 | CCC(C(=O)OCN1C(=O)C2=C(CCCC2)C1=O)c1c(C)cc(C)cc1C (stereo not drawn) [compound 27, 3',4',5',6'-Tetrahydrophthalimidomethyl-2-ethyl-2,4,6-trimethylphenylacetate] | – | pest or weed control at 0.2 % [2, 5]: > 80%
9 | COc1ccc(C(C(=O)OCN2C(=O)C3=C(CCCC3)C2=O)C(C)C)cc1 (stereo not drawn) [compound 73, 3',4',5',6'-Tetrahydrophthalimidomethyl-α-isopropyl-p-methoxyphenylacetate] | – | pest or weed control at 0.2 % [2, 5]: > 80%
10 | COc1ccc(C(C(=O)OCc2ccc(Cc3ccccc3)s2)C(C)C)cc1 (stereo not drawn) [compound 86, 5'-Benzyl-2'-thenylmethyl-α-isopropyl-4-methoxyphenylacetate] | – | pest or weed control at 0.2 % [2, 5]: > 80%; Potentiation magnification of insecticidal activity by the addition of piperonyl butoxide [4]: 4.5
11 | COc1ccc(C(C(=O)OCc2cc3c(o2)CCCC3)C(C)C)cc1 (stereo not drawn) [compound 88, 4',5'-Tetramethylenefurfuryl-α-isopropyl-4-methoxyphenylacetate] | – | pest or weed control at 0.2 % [2, 5]: > 80%; KT50 (50% knock-down time) [3]: 147 s
12 | COc1ccc(C(C(=O)OCc2cccc(Cc3ccccc3)c2)C(C)C)cc1 (stereo not drawn) [compound 89, 3'-Benzylbenzyl-α-isopropyl-4-methoxyphenylacetate] | – | KT50 (50% knock-down time) [3]: 155 s
13 | C=C(C)C(C(=O)OCN1C(=O)C2=C(CCCC2)C1=O)c1ccc(OC)cc1 (stereo not drawn) [compound 90, 3',4',5',6'-Tetrahydrophthalimidomethyl-α-isopropenyl-4-methoxyphenylacetate] | – | pest or weed control at 0.2 % [2, 5]: > 80%
14 | C=C(C)C(C(=O)OCc1cccc(Cc2ccccc2)c1)c1ccc(OC)cc1 (stereo not drawn) [compound 92, 3'-Benzylbenzyl-α-isopropenyl-4-methoxyphenylacetate] | – | pest or weed control at 0.2 % [2, 5]: > 80%
15 | C#CCc1ccc(C(C#C)OC(=O)C(CC)c2ccc(OC)cc2)o1 (stereo not drawn) [compound 94, 5'-Propargyl-α'-ethynylfurfuryl-α-ethyl-4-methoxyphenylacetate] | – | pest or weed control at 0.2 % [2, 5]: > 80%
16 | C=C(C)C(C(=O)OCc1cccc(Oc2ccccc2)c1)c1ccc(OC)cc1C (stereo not drawn) [compound 96, 3'-Phenoxybenzyl-α-isopropenyl-2-methyl-4-methoxyphenylacetate] | – | pest or weed control at 0.2 % [2, 5]: > 80%; KT50 (50% knock-down time) [3]: 92 s
17 | CCC(C(=O)OCc1coc(Cc2ccccc2)c1)c1ccc(C)cc1 (stereo not drawn) [compound 102, 5'-Benzyl-3'-furylmethyl-α-ethyl-4-methylphenylacetate] | 9.5 ng/mL (≈ 0.0273 µM) | –
18 | Cc1ccc(C(C(=O)OCc2coc(Cc3ccccc3)c2)C(C)C)cc1 (stereo not drawn) [compound 103, 5'-Benzyl-3'-furylmethyl-α-isopropyl-4-methylphenylacetate] | 9.2 ng/mL (≈ 0.0254 µM) | –
19 | CCC(C(=O)OCc1coc(Cc2ccccc2)c1)c1cccc(C)c1 (stereo not drawn) [compound 104, 5'-Benzyl-3'-furylmethyl-α-ethyl-3-methylphenylacetate] | 12 ng/mL (≈ 0.0344 µM) | –
20 | Cc1cccc(C(C(=O)OCc2coc(Cc3ccccc3)c2)C(C)C)c1 (stereo not drawn) [compound 105, 5'-Benzyl-3'-furylmethyl-α-isopropyl-3-methylphenylacetate] | 10.5 ng/mL (≈ 0.029 µM) | –
21 | CCC(C(=O)OCc1coc(Cc2ccccc2)c1)c1ccccc1C (stereo not drawn) [compound 110, 5'-Benzyl-3'-furylmethyl-α-ethyl-2-methylphenylacetate] | 12.5 ng/mL (≈ 0.0359 µM) | –
22 | C=C(C)C(C(=O)OCc1csc(Cc2ccccc2)c1)c1ccc(C)cc1 (stereo not drawn) [compound 112] | 4.6 ng/mL (≈ 0.0122 µM) | –

Row | SMILES | LC50 [1] | also measured
23 | C=C(C)C(C(=O)OCc1coc(Cc2ccco2)c1)c1ccc(C)cc1 (stereo not drawn) [compound 113, 5'-Furfuryl-3'-furylmethyl-α-isopropenyl-4-methylphenylacetate] | 5.3 ng/mL (≈ 0.0151 µM) | –
24 | C=C(C)C(C(=O)OCc1coc(Oc2ccccc2)c1)c1ccc(C)cc1 (stereo not drawn) [compound 115, 5'-Phenoxy-3'-furylmethyl-α-isopropenyl-4-methyl phenylacetate] | 5 ng/mL (≈ 0.0138 µM) | –
25 | C=C(C)C(C(=O)OCc1cccc(Oc2ccccc2)c1)c1cccc(Cl)c1 (stereo not drawn) [compound 120, 3'-Phenoxybenzyl-α-isopropenyl-3-chlorophenylacetate] | 4 ng/mL (≈ 0.0102 µM) | –
26 | C=C(C)C(C(=O)OCc1cccc(Oc2ccccc2)c1)c1ccc(CC)cc1 (stereo not drawn) [compound 126, 3'-Phenoxybenzyl-α-isopropenyl-4-ethylphenylacetate] | 5.6 ng/mL (≈ 0.0145 µM) | –
27 | C=C(C)C(C(=O)OCc1coc(Cc2ccccc2)c1)c1ccc(C)cc1 (stereo not drawn) [compound 128, 5'-Benzyl-3'-furylmethyl-α-isopropenyl-4-methylphenylacetate] | 4.7 ng/mL (≈ 0.013 µM) | –
28 | C#CCc1ccc(C(C#C)OC(=O)C(c2ccc(C)cc2)C(C)C)o1 (stereo not drawn) [compound 160] | – | Potentiation magnification of insecticidal activity by the addition of piperonyl butoxide [4]: 7.2
29 | CCC(C(=O)OCc1coc(Cc2ccco2)c1)c1ccc(Br)cc1 (stereo not drawn) [compound 175] | – | pest or weed control at 0.2 % [2, 5]: > 80%; KT50 (50% knock-down time) [3]: 152 s
30 | CCC(C(=O)OCc1cccc(Oc2ccccc2)c1)c1ccc(Cl)cc1 (stereo not drawn) [compound 177] | 7.4 ng/mL (≈ 0.0194 µM) | Potentiation magnification of insecticidal activity by the addition of piperonyl butoxide [4]: 5.8
31 | CCC(C(=O)OCc1cccc(Oc2ccccc2)c1)c1ccc(Br)cc1 (stereo not drawn) [compound 178] | – | Potentiation magnification of insecticidal activity by the addition of piperonyl butoxide [4]: 5.4
32 | Cc1ccc(C(C)C(=O)OCc2coc(Cc3ccccc3)c2)cc1 (stereo not drawn) [compound 181] | 82 ng/mL (≈ 0.245 µM) | –
33 | Cc1ccc(C(C)C(=O)OCc2cccc(Oc3ccccc3)c2)cc1 (stereo not drawn) [compound 183] | 88.5 ng/mL (≈ 0.255 µM) | –
34 | CCC(C(=O)OC1C=C(Cc2ccccc2)C(=O)C1)c1ccc(F)cc1 (stereo not drawn) [compound 191] | – | Potentiation magnification of insecticidal activity by the addition of piperonyl butoxide [4]: 4.3
35 | CC(C)C(C(=O)OCc1coc(Cc2ccccc2)c1)c1cccc(Cl)c1 (stereo not drawn) [compound 204] | 7.5 ng/mL (≈ 0.0196 µM) | Potentiation magnification of insecticidal activity by the addition of piperonyl butoxide [4]: 4.7
36 | CC(C)C(C(=O)OCc1cccc(Oc2ccccc2)c1)c1ccc(F)cc1 (stereo not drawn) [compound 210] | 3.5 ng/mL (≈ 0.00925 µM) | Potentiation magnification of insecticidal activity by the addition of piperonyl butoxide [4]: 4.8
37 | CC(C)C(C(=O)OCc1coc(Cc2ccccc2)c1)c1ccc(Br)cc1 (stereo not drawn) [compound 212] | 3.7 ng/mL (≈ 0.00866 µM) | Potentiation magnification of insecticidal activity by the addition of piperonyl butoxide [4]: 5.0
38 | CCc1ccc(C(C(=O)OCc2coc(Cc3ccccc3)c2)C(C)C)cc1 (stereo not drawn) [compound 214] | 12.7 ng/mL (≈ 0.0337 µM) | –
39 | CCc1ccc(C(C(=O)OCc2cccc(Oc3ccccc3)c2)C(C)C)cc1 (stereo not drawn) [compound 215] | 13.2 ng/mL (≈ 0.034 µM) | –
40 | Cc1ccc(C(C(=O)OCc2ccc(Cc3ccccc3)cc2)C(C)C)cc1 (stereo not drawn) [compound 226] | 13.5 ng/mL (≈ 0.0362 µM) | Potentiation magnification of insecticidal activity by the addition of piperonyl butoxide [4]: 4.5
41 | Cc1ccc(C(C(=O)OC(C#N)c2cccc(Oc3ccccc3)c2)C(C)C)cc1 (stereo not drawn) [compound 227] | 1.9 ng/mL (≈ 0.00476 µM) | –
42 | CC(C)C(C(=O)OC(C#N)c1cccc(Oc2ccccc2)c1)c1ccc(Cl)cc1 (stereo not drawn) [compound 231] | 1.4 ng/mL (≈ 0.00333 µM) | –
43 | CSc1ccc(C(C(=O)OCc2cccc(Oc3ccccc3)c2)C(C)C)cc1 (stereo not drawn) [compound 298] | 9.7 ng/mL (≈ 0.0239 µM) | –
